Laboratory results from US20260297081A1, “COMPOUNDS AND METHODS OF TREATING CANCERS” (Cullgen Inc., priority 2023, published 2026).

How the values were obtained:
Assay type in all cases: cell-based
Calu-1 cells = assay: Anti-proliferation (viability) of NSCLC Calu-1 cells, 3 days (Table 7, FIG. 2B); settings: Homo sapiens, 72 h; Calu-1 cells, 3 days, 10-point serial dilution; read-out: GI IC50 in Calu-1
In short: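 Treatment length differs by line: Calu-1 cells receive degrader for 3 days, T47D cells for 6 days, each over a 10-point dilution series. A warhead-modified analogue with unchanged DDB1 binder and linker served as the non-CDK4-binding control.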

CDK4 = CDK4 (Homo sapiens, UniProt P11802+Q16531); assay: CDK4 percentage degradation in Calu-1 cells (Table 6); set-up: Cells that express cyclin D1-3 and CDK4/6 proteins were treated with heterobifunctional compounds; endogenous in cells; host or cells: Calu-1; settings: 16 hours; for inhibition at 0.04 µM: 40 nM; for inhibition at 0.2 µM: 200 nM
In short: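 Percentage degradation of Cyclin D1 and CDK4 derived from densitometry of ECL Western blots on lysates of Calu-1 cells. Treatment was 16 h with compound at either 40 nM or 200 nM.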

MCF7 cells = assay: Anti-proliferation (viability) of MCF7 cells (Table 7, FIG. 2B); settings: Homo sapiens, MCF7, MCF7 cells, 3-6 days, 10-point serial dilution; read-out: GI IC50 in MCF-7

Chain of CDK4 (P11802 2-303 limits assumed): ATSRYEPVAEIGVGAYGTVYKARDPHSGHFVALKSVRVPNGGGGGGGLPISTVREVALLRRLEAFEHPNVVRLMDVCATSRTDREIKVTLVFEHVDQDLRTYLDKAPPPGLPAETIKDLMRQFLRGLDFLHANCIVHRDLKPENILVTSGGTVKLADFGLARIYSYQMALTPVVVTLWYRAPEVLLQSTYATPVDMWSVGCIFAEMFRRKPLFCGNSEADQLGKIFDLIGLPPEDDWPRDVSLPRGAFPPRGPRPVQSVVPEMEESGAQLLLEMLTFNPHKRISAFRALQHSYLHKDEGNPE
Chain of CDK4 (P24385 whole entry partner): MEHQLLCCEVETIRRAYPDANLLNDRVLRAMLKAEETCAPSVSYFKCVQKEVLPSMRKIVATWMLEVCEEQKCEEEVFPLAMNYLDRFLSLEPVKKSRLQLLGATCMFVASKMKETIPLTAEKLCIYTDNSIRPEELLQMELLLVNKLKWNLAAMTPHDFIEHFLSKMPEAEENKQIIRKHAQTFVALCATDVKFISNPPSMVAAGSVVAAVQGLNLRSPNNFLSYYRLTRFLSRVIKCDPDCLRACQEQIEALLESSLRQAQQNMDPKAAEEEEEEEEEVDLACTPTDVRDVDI
Chain of CDK4 (Q16531 2-1140 limits assumed): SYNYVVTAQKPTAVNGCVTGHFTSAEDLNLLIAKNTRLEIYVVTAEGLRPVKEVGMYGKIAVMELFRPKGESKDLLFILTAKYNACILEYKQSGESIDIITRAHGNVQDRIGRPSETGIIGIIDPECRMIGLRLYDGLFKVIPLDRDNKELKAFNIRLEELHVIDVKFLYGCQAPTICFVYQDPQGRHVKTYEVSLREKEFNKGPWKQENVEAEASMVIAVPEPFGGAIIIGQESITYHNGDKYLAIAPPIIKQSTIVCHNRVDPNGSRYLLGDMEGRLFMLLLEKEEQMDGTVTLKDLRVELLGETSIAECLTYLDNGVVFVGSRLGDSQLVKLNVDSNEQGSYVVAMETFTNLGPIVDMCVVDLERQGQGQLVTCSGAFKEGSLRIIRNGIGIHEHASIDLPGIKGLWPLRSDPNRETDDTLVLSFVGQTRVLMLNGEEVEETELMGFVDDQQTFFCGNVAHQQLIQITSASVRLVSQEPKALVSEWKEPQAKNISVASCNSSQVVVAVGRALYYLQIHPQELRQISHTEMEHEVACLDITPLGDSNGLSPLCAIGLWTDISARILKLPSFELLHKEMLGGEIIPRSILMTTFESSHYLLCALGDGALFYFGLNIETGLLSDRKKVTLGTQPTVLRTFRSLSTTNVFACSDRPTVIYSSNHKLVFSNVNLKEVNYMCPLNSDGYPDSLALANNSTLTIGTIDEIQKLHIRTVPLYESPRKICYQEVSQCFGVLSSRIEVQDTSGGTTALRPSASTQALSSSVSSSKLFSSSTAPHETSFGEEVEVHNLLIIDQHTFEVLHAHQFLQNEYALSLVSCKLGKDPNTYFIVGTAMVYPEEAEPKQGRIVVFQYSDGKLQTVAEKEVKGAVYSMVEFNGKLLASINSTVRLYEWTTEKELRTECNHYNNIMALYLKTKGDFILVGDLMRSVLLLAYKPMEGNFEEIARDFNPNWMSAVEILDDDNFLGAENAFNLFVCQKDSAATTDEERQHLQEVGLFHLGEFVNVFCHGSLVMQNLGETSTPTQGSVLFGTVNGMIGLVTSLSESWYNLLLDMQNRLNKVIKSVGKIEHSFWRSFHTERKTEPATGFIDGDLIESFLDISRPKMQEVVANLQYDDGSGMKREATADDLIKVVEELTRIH

Structure (SMILES)	IC50 (Calu-1 cells) [nM]	inhibition at 0.04 µM (CDK4) [%]	IC50 (MCF7 cells) [nM]	inhibition at 0.2 µM (CDK4) [%]
CNc1ccc(C(=O)Nc2nc(C)c(C)s2)c(NCCCCCCCNC(=O)CN2CCN(c3ccc(Nc4ncc5c(C)c(C(C)=O)c(=O)n(C6CCCC6)c5n4)nc3)CC2)n1 [CPD-4, 2-((7-(2-(4-(6-((6-acetyl-8-cyclopentyl-5-methyl-7-oxo-7,8-dihydropyrido[2,3-d]pyrimidin-2-yl)amino)pyridin-3-yl)piperazin-1-yl)acetamido)heptyl)amino)-N-(4,5-dimethylthiazol-2-yl)-6-(methylamino)nicotinamide]	10 to 50	50 to 80	50 to 100	–
CNc1ccc(C(=O)Nc2ccc(N(C)C)nn2)c(NC2CCC3(C2)CN(C(=O)CCN2CCN(c4ccc(Nc5ncc6c(C)c(C(C)=O)c(=O)n(C7CCCC7)c6n5)nc4)CC2)C3)n1 (stereo not drawn) [CPD-158, 2-((2-(3-(4-(6-((6-acetyl-8-cyclopentyl-5-methyl-7-oxo-7,8-dihydropyrido[2,3-d]pyrimidin-2-yl)amino)pyridin-3-yl)piperazin-1-yl)propanoyl)-2-azaspiro[3.4]octan-6-yl)amino)-N-(6-(dimethylamino)pyridazin-3-yl)-6-(methylamino)nicotinamide]	≤ 10	50 to 80	< 50	> 80
CNc1ccc(C(=O)Nc2ccc(N(C)C)nn2)c(NC2CC(CNC(=O)C(C)(C)N3CCN(c4ccc(Nc5ncc6c(C)c(C(C)=O)c(=O)n(C7CCCC7)c6n5)nc4)CC3)C2)n1 (stereo not drawn) [CPD-167, 2-((3-((2-(4-(6-((6-acetyl-8-cyclopentyl-5-methyl-7-oxo-7,8-dihydropyrido[2,3-d]pyrimidin-2-yl)amino)pyridin-3-yl)piperazin-1-yl)-2-methylpropanamido)methyl)cyclobutyl)amino)-N-(6-(dimethylamino)pyridazin-3-yl)-6-(methylamino)nicotinamide]	≤ 10	> 80	< 50	> 80
CC(=O)c1c(C)c2cnc(Nc3ccc(CN4CCN(CC(=O)N5CCC(Nc6nc(NC(C)C)ccc6C(=O)Nc6cn7c(n6)CCC7)CC5)CC4)cn3)nc2n(C2CCCC2)c1=O [CPD-564, 2-((1-(2-(4-((6-((6-acetyl-8-cyclopentyl-5-methyl-7-oxo-7,8-dihydropyrido[2,3-d]pyrimidin-2-yl)amino)pyridin-3-yl)methyl)piperazin-1-yl)acetyl)piperidin-4-yl)amino)-N-(6,7-dihydro-5H-pyrrolo[1,2-a]imidazol-2-yl)-6-(isopropylamino)nicotinamide]	10 to 50	–	> 100	–
CC(=O)c1c(C)c2cnc(Nc3ccc(N4CCN(C5CCN(C(=O)[C@H]6CC[C@H](Nc7nc(NC(C)C)ccc7C(=O)Nc7cn8c(n7)CCC8)CC6)C5)CC4)cn3)nc2n(C2CCCC2)c1=O (stereo partly drawn) [CPD-568, 2-((trans-4-(3-(4-(6-((6-acetyl-8-cyclopentyl-5-methyl-7-oxo-7,8-dihydropyrido[2,3-d]pyrimidin-2-yl)amino)pyridin-3-yl)piperazin-1-yl)pyrrolidine-1-carbonyl)cyclohexyl)amino)-N-(6,7-dihydro-5H-pyrrolo[1,2-a]imidazol-2-yl)-6-(isopropylamino)nicotinamide]	≤ 10	–	> 100	–
[2H]C([2H])([2H])Nc1ccc(C(=O)Nc2cn3c(n2)CCC3)c(N[C@H]2CC[C@H](C(=O)N3CCC(N4CCN(c5ccc(Nc6ncc7c(C)c(C(C)=O)c(=O)n(C8CCCC8)c7n6)nc5)CC4)C3)CC2)n1 (stereo partly drawn) [CPD-569, 2-((trans-4-(3-(4-(6-((6-acetyl-8-cyclopentyl-5-methyl-7-oxo-7,8-dihydropyrido[2,3-d]pyrimidin-2-yl)amino)pyridin-3-yl)piperazin-1-yl)pyrrolidine-1-carbonyl)cyclohexyl)amino)-N-(6,7-dihydro-5H-pyrrolo[1,2-a]imidazol-2-yl)-6-((methyl-d3)amino)nicotinamide]	≥ 50	–	> 100	–

Now from value to compound:

IC50 (Calu-1 cells) [nM]	inhibition at 0.04 µM (CDK4) [%]	IC50 (MCF7 cells) [nM]	inhibition at 0.2 µM (CDK4) [%]	Structure (SMILES)
≤ 10	50 to 80	< 50	> 80	CNc1ccc(C(=O)Nc2ccc(N(C)C)nn2)c(NCC2CCN(C(=O)CCN3CCN(c4ccc(Nc5ncc6c(C)c(C(C)=O)c(=O)n(C7CCCC7)c6n5)nc4)CC3)CC2)n1 [CPD-146, 2-(((1-(3-(4-(6-((6-acetyl-8-cyclopentyl-5-methyl-7-oxo-7,8-dihydropyrido[2,3-d]pyrimidin-2-yl)amino)pyridin-3-yl)piperazin-1-yl)propanoyl)piperidin-4-yl)methyl)amino)-N-(6-(dimethylamino)pyridazin-3-yl)-6-(methylamino)nicotinamide]
≤ 10	50 to 80	50 to 100	> 80	CNc1ccc(C(=O)Nc2ccc(N(C)C)nn2)c(NC2CC(NC(=O)CCN3CCN(c4ccc(Nc5ncc6c(C)c(C(C)=O)c(=O)n(C7CCCC7)c6n5)nc4)CC3)C2)n1 (stereo not drawn) [CPD-150, 2-((3-(3-(4-(6-((6-acetyl-8-cyclopentyl-5-methyl-7-oxo-7,8-dihydropyrido[2,3-d]pyrimidin-2-yl)amino)pyridin-3-yl)piperazin-1-yl)propanamido)cyclobutyl)amino)-N-(6-(dimethylamino)pyridazin-3-yl)-6-(methylamino)nicotinamide]
≤ 10	50 to 80	50 to 100	> 80	CNc1ccc(C(=O)Nc2ccc(N(C)C)nn2)c(NC2CC(C(=O)NCCN3CCN(c4ccc(Nc5ncc6c(C)c(C(C)=O)c(=O)n(C7CCCC7)c6n5)nc4)CC3)C2)n1 (stereo not drawn) [CPD-157, 2-((3-((2-(4-(6-((6-acetyl-8-cyclopentyl-5-methyl-7-oxo-7,8-dihydropyrido[2,3-d]pyrimidin-2-yl)amino)pyridin-3-yl)piperazin-1-yl)ethyl)carbamoyl)cyclobutyl)amino)-N-(6-(dimethylamino)pyridazin-3-yl)-6-(methylamino)nicotinamide]
≤ 10	50 to 80	> 100	> 80	CNc1ccc(C(=O)Nc2cc(C)n(C)n2)c(NC2CC(CNC(=O)CN3CCN(c4ccc(Nc5ncc6c(C)c(C(C)=O)c(=O)n(C7CCCC7)c6n5)nc4)CC3)C2)n1 (stereo not drawn) [CPD-165, 2-((3-((2-(4-(6-((6-acetyl-8-cyclopentyl-5-methyl-7-oxo-7,8-dihydropyrido[2,3-d]pyrimidin-2-yl)amino)pyridin-3-yl)piperazin-1-yl)acetamido)methyl)cyclobutyl)amino)-N-(1,5-dimethyl-1H-pyrazol-3-yl)-6-(methylamino)nicotinamide]
≤ 10	50 to 80	50 to 100	> 80	CNc1ccc(C(=O)Nc2cccc(C)n2)c(NC2CC(CNC(=O)CN3CCN(c4ccc(Nc5ncc6c(C)c(C(C)=O)c(=O)n(C7CCCC7)c6n5)nc4)CC3)C2)n1 (stereo not drawn) [CPD-170, 2-((3-((2-(4-(6-((6-acetyl-8-cyclopentyl-5-methyl-7-oxo-7,8-dihydropyrido[2,3-d]pyrimidin-2-yl)amino)pyridin-3-yl)piperazin-1-yl)acetamido)methyl)cyclobutyl)amino)-6-(methylamino)-N-(6-methylpyridin-2-yl)nicotinamide]
≤ 10	–	< 50	–	CC(=O)c1c(C)c2cnc(Nc3ccc(N4CCN(CC(=O)NC5CC6(C5)CC(Nc5nc(NC(C)C)ccc5C(=O)Nc5cn7c(n5)CCC7)C6)CC4)cn3)nc2n(C2CCCC2)c1=O (stereo not drawn) [CPD-566, 2-((6-(2-(4-(6-((6-acetyl-8-cyclopentyl-5-methyl-7-oxo-7,8-dihydropyrido[2,3-d]pyrimidin-2-yl)amino)pyridin-3-yl)piperazin-1-yl)acetamido)spiro[3.3]heptan-2-yl)amino)-N-(6,7-dihydro-5H-pyrrolo[1,2-a]imidazol-2-yl)-6-(isopropylamino)nicotinamide]
≤ 10	–	50 to 100	–	[2H]C([2H])([2H])Nc1ccc(C(=O)Nc2cn3c(n2)CCC3)c(NC2CC3(C2)CN(C(=O)CC(N2CCN(c4ccc(Nc5ncc6c(C)c(C(C)=O)c(=O)n(C7CCCC7)c6n5)nc4)CC2)C(F)(F)F)C3)n1 (stereo not drawn) [CPD-567, 2-((2-(3-(4-(6-((6-acetyl-8-cyclopentyl-5-methyl-7-oxo-7,8-dihydropyrido[2,3-d]pyrimidin-2-yl)amino)pyridin-3-yl)piperazin-1-yl)-4,4,4-trifluorobutanoyl)-2-azaspiro[3.3]heptan-6-yl)amino)-N-(6,7-dihydro-5H-pyrrolo[1,2-a]imidazol-2-yl)-6-((methyl-d3)amino)nicotinamide]
≤ 10	–	< 50	–	CC(=O)c1c(C)c2cnc(Nc3ccc(N4CCN(C5CCN(C(=O)[C@H]6CC[C@H](Nc7nc(C(F)(F)F)ccc7C(=O)Nc7ccc(N(C)C)nn7)CC6)C5)CC4)cn3)nc2n(C2CCCC2)c1=O (stereo partly drawn) [CPD-571, 2-((trans-4-(3-(4-(6-((6-acetyl-8-cyclopentyl-5-methyl-7-oxo-7,8-dihydropyrido[2,3-d]pyrimidin-2-yl)amino)pyridin-3-yl)piperazin-1-yl)pyrrolidine-1-carbonyl)cyclohexyl)amino)-N-(6-(dimethylamino)pyridazin-3-yl)-6-(trifluoromethyl)nicotinamide]
≤ 10	–	50 to 100	–	CC(=O)c1c(C)c2cnc(Nc3ccc(N4CCN(C5CCN(C(=O)C6(F)CCC(Nc7nc(NC(C)C)ccc7C(=O)Nc7ccc(N(C)C)nn7)CC6)C5)CC4)cn3)nc2n(C2CCCC2)c1=O (stereo not drawn) [CPD-572, 2-((4-(3-(4-(6-((6-acetyl-8-cyclopentyl-5-methyl-7-oxo-7,8-dihydropyrido[2,3-d]pyrimidin-2-yl)amino)pyridin-3-yl)piperazin-1-yl)pyrrolidine-1-carbonyl)-4-fluorocyclohexyl)amino)-N-(6-(dimethylamino)pyridazin-3-yl)-6-(isopropylamino)nicotinamide]
